One experiment has as its target T1, mouse RORγ (Mus musculus, UniProt P51450).
T1 construct: mouse, NM_011281.2 and from Ile251 to Lys516; expressed in transfected cells; host or cells: CHO cells (transient co-transfection with pG5-Luc reporter)
T1 sequence (P51450 251-516): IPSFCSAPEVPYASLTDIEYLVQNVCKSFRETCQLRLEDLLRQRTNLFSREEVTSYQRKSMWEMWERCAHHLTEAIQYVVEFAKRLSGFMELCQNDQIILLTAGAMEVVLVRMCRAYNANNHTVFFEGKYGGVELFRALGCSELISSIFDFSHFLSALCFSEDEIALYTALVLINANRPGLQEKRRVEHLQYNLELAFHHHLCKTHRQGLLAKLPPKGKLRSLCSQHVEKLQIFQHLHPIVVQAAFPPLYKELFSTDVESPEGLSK
The experiment in a line: Luciferase reporter gene assay of inhibitory effect against RORγ transcriptional activity (GAL4-mRORγ plasmid in CHO cells). It counts as cell-based. To be noted: for EC50: read-out: LUC EC50 (μM) mRORg; for pEC50: read-out: LUC EC50 mRORg. A digest of the protocol:
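CHO cells transiently co-transfected with GAL4-mouse RORγ LBD (Ile251–Lys516) and GAL4-dependent luciferase reporter; eight compound concentrations, 0.1% DMSO, 2 days at 37 °C. Luminescence as %-of-vehicle control; EC50 by curve fit, cytotoxic concentrations excluded.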
A general note: In a reporter assay the amount or activity of a reporter protein is the signal.

Another experiment deals with T2, human RORγ (Homo sapiens, UniProt P51449).
T2 construct: human, NM_005060.3 and from Ser253 to Lys518; expressed in transfected cells; host or cells: CHO cells (transient co-transfection with pG5-Luc reporter)
T2 sequence (P51449 253-518): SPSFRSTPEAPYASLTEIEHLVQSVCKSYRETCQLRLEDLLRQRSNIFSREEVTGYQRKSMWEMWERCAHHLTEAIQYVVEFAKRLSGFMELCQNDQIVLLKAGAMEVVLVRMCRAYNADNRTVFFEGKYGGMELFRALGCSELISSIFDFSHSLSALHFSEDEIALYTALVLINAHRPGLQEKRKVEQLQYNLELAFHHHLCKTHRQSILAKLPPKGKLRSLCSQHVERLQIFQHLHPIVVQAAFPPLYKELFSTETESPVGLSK
The experiment in a line: Luciferase reporter gene assay of inhibitory effect against RORγ transcriptional activity (GAL4-hRORγ plasmid in CHO cells). It counts as cell-based. As to conditions: for EC50: read-out: LUC EC50 (μM) hRORg; for pEC50: read-out: LUC EC50 hRORg.

pEC50: −log10 of the molar value. Like-named read-outs stand apart in the source and are kept apart here.

Broadly, the EC50 is the midpoint of the concentration-response curve. The term pEC50 denotes −log10 of the EC50, conventionally taken in molar units.

For `CCCC(CCC)NC(=O)CCc1nnc(C2Cc3ccccc3C2)n1CC` [Example F-28], the EC50 on mouse RORγ and on human RORγ was over 3 µM throughout.
Consider `CCn1c(CCC(=O)Nc2ccc(C)cc2C)nnc1CCC(C)(C)C` [Example F-47], for which the EC50 is under 3 µM on mouse RORγ and over 3 µM on human RORγ.
On the same counts, the results for `Cc1c(Cl)cccc1NC(=O)CCc1nnc(CC[C@H]2CC[C@H](C(=O)N(C)C)CC2)n1C1CC1` [Example F-258] are over 3 µM and over 3 µM.
On the same counts, the results for `Cc1cccc(CNC(=O)CCc2nnc(CCC(C)C)n2C2CC2)c1C` [Example F-118] are over 3 µM and over 3 µM.
For `COCc1ccc(NC(=O)CCc2nnc(CCC(C)C)n2C2CC2)c(C)c1` [Example F-136], in that order: over 3 µM and over 3 µM.
Turning to `Cc1cc(C(F)(F)F)ccc1NC(=O)C[C@H](CCO)c1nnc([C@H]2C[C@@H](CC(C)C)C2)n1C1CC1` [Example F-546], the pEC50 at mouse RORγ and at human RORγ was over 5.52 each time.
`Cc1ncccc1NC(=O)CCc1nnc(CCC(C)C)n1C1CC1` [Example F-91]: the EC50 on mouse RORγ and at human RORγ was over 3 µM in each case.
As for `Cc1ccc(NC(=O)C[C@H](Cc2nnn[nH]2)c2noc([C@H]3C[C@@H](CC(C)C)C3)c2C2CC2)c(C)c1` [Example F-641], the pEC50 on mouse RORγ and on human RORγ was over 5.52 throughout.
As for `CC(C)CCc1nnc(CCC(=O)NCc2cccc3[nH]cnc23)n1C1CC1` [Example F-115], the EC50 on mouse RORγ and on human RORγ was over 3 µM in each case.
For the molecule `Cc1cc(F)ccc1NC(=O)C[C@H](CCO)c1nnc([C@H]2C[C@@H](CC(F)(F)F)C2)n1C1CC1` [Example F-588], the pEC50 on mouse RORγ is over 5.52; at human RORγ it was under 5.52.
Take `Cc1ccc(NC(=O)CCc2noc(C(F)(F)c3cc(C(C)(C)C)on3)c2C2CC2)c(Cl)c1` [Example F-745]: the pEC50 on mouse RORγ and on human RORγ was over 5.52 throughout.
On to `CNC(=O)C(C)(C)CCCc1nnc(CCC(=O)Nc2cccc(Cl)c2C)n1C1CC1` [Example F-237], for which the EC50 at mouse RORγ and on human RORγ was over 3 µM in each case.
Consider `Cc1cccc(NC(=O)CCc2nnc(CCC(C)C)n2C2CC2)c1C` [Example F-78], for which the figures for the EC50 at mouse RORγ and at human RORγ were under 3 µM and over 3 µM, respectively.
With `CC(C)(C)Cc1cc(-c2onc([C@@H](CCC(=O)O)CC(=O)Nc3ccc(Cl)cc3Cl)c2C2CC2)no1` [Example E-58, Sodium (S)-4-[4′-cyclopropyl-5-(2,2-dimethyl-propyl)-[3,5′]biisoxazolyl-3′-yl]-5-(2,4-dichloro-phenylcarbamoyl)-pentanoate], the EC50 at mouse RORγ and on human RORγ was under 3 µM throughout.
In the case of `CCn1c(CC(C)C(=O)Nc2cccc3ccccc23)nnc1C1Cc2ccccc2C1` (racemic) [Example F-32], the EC50 at mouse RORγ and on human RORγ was under 3 µM throughout.
Take `CC(=O)N1C[C@H](C(=O)Nc2ccc(C)cc2C)[C@@H](c2nnc(CCC(C)(C)C(C)C)n2C2CC2)C1` (racemic) [Example F-321]: the EC50 at mouse RORγ and on human RORγ was under 3 µM in each case.
On to `CCN(CC)CC(=O)N1C[C@H](C(=O)Nc2ccc(C)cc2C)[C@@H](c2nnc([C@H]3C[C@@H](CC(C)C)C3)n2C2CC2)C1` [Example F-654], for which the pEC50 was over 5.52 on mouse RORγ and under 5.52 at human RORγ.
On to `CCn1c(CCC(=O)Nc2cccc(Cl)c2C)nnc1C1Cc2ccccc2C1` [Example F-3], for which the EC50 is under 3 µM at mouse RORγ and over 3 µM on human RORγ.
Consider `Cc1ccc(NC(=O)C[C@H](CCO)c2nnc(C3CC4(CCC(C)(C)CC4)C3)n2C2CC2)c(C)c1` [Example F-602], for which the pEC50 at mouse RORγ and on human RORγ was over 5.52 throughout.
As to `CCn1c(C(C)CC(=O)Nc2cccc3ccccc23)nnc1C1Cc2ccccc2C1` (racemic) [Example F-33], the concentration for a half-maximal effect (EC50) on mouse RORγ and at human RORγ was under 3 µM throughout.
As to `Cc1cc(F)ccc1NC(=O)C[C@H](CC(=O)NS(C)(=O)=O)c1noc([C@H]2C[C@@H](CC(C)C)C2)c1C1CC1` [Example F-637], the pEC50 at mouse RORγ and on human RORγ was over 5.52 in each case.
On to `COc1ccc(CNC(=O)CCc2nnc(CCC(C)C)n2C2CC2)c(C)c1` [Example F-108], for which the EC50 at mouse RORγ and on human RORγ was over 3 µM throughout.
As to `C=CCC(CC(=O)Nc1cccc(Cl)c1C)c1nnc(CCC2CCCCC2)n1C1CC1` (racemic) [Example F-244], the EC50 on mouse RORγ and at human RORγ was under 3 µM throughout.
`Cc1c(Cl)cccc1NC(=O)CCc1nnc(CCC2CCCCC2)n1C1CC1` [Example F-94]: the EC50 on mouse RORγ and on human RORγ was under 3 µM throughout.
Consider `Cc1ccc(NC(=O)CC(c2nnc([C@H]3C[C@@H](CC(C)C)C3)n2C2CC2)C2CN(C)C2)c(C)c1` (mixture of isomers) [Example F-469], for which the half-maximal effective concentration (EC50) on mouse RORγ and on human RORγ was over 3 µM each time.
For `Cc1ccc(NC(=O)[C@H]2CN(C)C[C@@H]2c2nnc(-c3cc(CC(C)C)on3)n2C2CC2)c(C)c1` [Example F-618], the pEC50 at mouse RORγ and on human RORγ was over 5.52 in each case.
`Cc1cc(Cl)c(NC(=O)C[C@H](CCC(=O)O)c2noc(-c3cc(CCC(C)(C)C)on3)c2C2CC2)cc1F` [Example E-45]: the EC50 at mouse RORγ and at human RORγ was under 3 µM each time.
Turning to `Cc1ccc(NC(=O)[C@H]2CN(C(=O)C(F)F)C[C@@H]2c2nnc([C@H]3C[C@@H](CC(C)(C)C)C3)n2C2CC2)c(C)c1` [Example F-551], the pEC50 at mouse RORγ and on human RORγ was over 5.52 each time.
For the molecule `Cc1ccc(NC(=O)C[C@H](CC(C)C)c2nnc(-c3cc(CC(C)(C)C)on3)n2C2CC2)c(C)c1` [Example F-625], the negative-log EC50 (pEC50) on mouse RORγ and on human RORγ was over 5.52 in each case.
Take `Cc1ccc(NC(=O)C[C@@H](Cc2nccs2)c2nnc([C@H]3C[C@@H](CC(C)C)C3)n2C2CC2)c(C)c1` [Example F-476]: the EC50 on mouse RORγ and on human RORγ was under 3 µM each time.
With `Cc1ccc(NC(=O)C[C@H](CCC(=O)O)c2noc(-c3cc(CCC(F)(F)F)on3)c2C2CC2)c(Cl)c1` [Example E-50], the EC50 on mouse RORγ and at human RORγ was under 3 µM throughout.
Consider `Cc1cc(C)c(NC(=O)C[C@H](CCO)c2nnc([C@H]3C[C@@H](CC(C)C)C3)n2C2CC2)c(F)c1` [Example F-548], for which the pEC50 on mouse RORγ and on human RORγ was over 5.52 in each case.
Turning to `C=CC[C@H](CC(=O)Nc1ccc(C)cc1C)c1nnc(CCCC(C)(C)C)n1C1CC1` [Example F-381], the EC50 is under 3 µM on mouse RORγ and over 3 µM on human RORγ.
For `Cc1ccc(NC(=O)CCc2cc([C@H]3C[C@@H](CC(C)(C)C)C3)on2)c(Cl)c1` [Example F-733], the pEC50 at mouse RORγ and on human RORγ was over 5.52 throughout.
On to `Cc1ccc(NC(=O)C[C@H](CCO)c2nnc([C@H]3C[C@@H](CC(F)(F)F)C3)n2C2CC2)c(C)c1` [Example F-587], for which the pEC50 at mouse RORγ and on human RORγ was over 5.52 throughout.
For `COC1(CC(C)C)CC(c2nnc([C@H]3CN(C(C)=O)C[C@@H]3C(=O)Nc3ccc(C)cc3C)n2C2CC2)C1` (single isomer, unassigned) [Example F-482], the EC50 on mouse RORγ and on human RORγ was under 3 µM in each case.
With `Cc1ccc(NC(=O)CCc2noc(C(F)(F)c3cc(C(C)(C)C)no3)c2C2CC2)c(Cl)c1` [Example F-740], the negative logarithm of the EC50 (pEC50) on mouse RORγ and at human RORγ was over 5.52 each time.
For `Cc1ccc(NC(=O)CC(CC(=O)N(C)C)c2nnc([C@H]3C[C@@H](CC(C)C)C3)n2C2CC2)c(C)c1` (mixture of isomers) [Example F-500], the pEC50 at mouse RORγ and on human RORγ was over 5.52 each time.
With `Cc1ccc(NC(=O)C[C@H](N)c2nnc(CCCC(C)(C)C)n2C2CC2)c(C)c1` [Example F-359], the EC50 at mouse RORγ and on human RORγ was under 3 µM each time.
With `Cc1ccc(NC(=O)[C@H]2CN(C(=O)C(C)C)C[C@@H]2c2nnc([C@H]3C[C@@H](CC(C)(C)C)C3)n2C2CC2)c(C)c1` [Example F-553], the pEC50 at mouse RORγ and on human RORγ was over 5.52 throughout.
In the case of `CCCn1c(CCC(=O)Nc2cccc3ccccc23)nnc1C1Cc2ccccc2C1` [Example F-5], the EC50 on mouse RORγ and on human RORγ was over 3 µM in each case.
For the molecule `Cc1ccc(C)c(NC(=O)CCc2nnc(CCC(C)C)n2C2CC2)c1` [Example F-71], the EC50 on mouse RORγ and at human RORγ was over 3 µM in each case.
Regarding `Cc1ccc(NC(=O)C2CN(CC(=O)O)CC2c2noc([C@H]3C[C@@H](CC(C)(C)C)C3)c2C2CC2)c(Cl)c1` (stereo partly shown) [Example F-687], the pEC50 on mouse RORγ and on human RORγ was over 5.52 each time.
On to `Cc1ccc(NC(=O)C[C@H](CC(F)(F)F)c2nnc([C@H]3C[C@@H](CC(C)C)C3)n2C2CC2)c(C)c1` [Example F-568], for which the pEC50 at mouse RORγ and at human RORγ was over 5.52 throughout.
